# Tests used:
# human glucagon receptor [1] = target: T1, human glucagon receptor (Homo sapiens (Human), UniProt P47871); experiment: Glucagon cAMP Assay (Cisbio cAMP detection); format: cell-based; settings: CHOK1 cells stably transfected with the human glucagon receptor; block of glucagon induced cAMP production; Kb by modified Cheng-Prusoff equation
# Method: The Cisbio cAMP detection assay is used to determine the ability of punitive glucagon antagonist to block glucagon induced cAMP production. Potential glucagon antagonists are re-suspended and diluted in 100% DMSO. Prior to use in the Glucagon cAMP assay 100×DMSO compound stocks are diluted 20× with DMEM-F12 media (Invitrogen) containing either 0.1% or 4% BSA. […] 2 μls of 5% DMSO or known glucagon antagonist are added to each plate to define the assay window. CHOK1 cells stably transfected with the human glucagon receptor are removed from culture flasks with cell dissociation buffer. Cell pellets are re-suspended, at a concentration of 8.3e^5 cells/ml in DMEM-F12 with or without 4% BSA and 200 uM IBMX. 6 μls of cell suspensions are added to the assay plates. Plates are incubated for 20 min at room temperature prior to the addition of a 100 μM challenge dose of glucagon. On a separate plate glucagon dose response curves are run to determine the EC50 of glucagon. After a 30 min room temperature incubation the reaction is terminated by the addition of lysis buffer containing the cAMP detection reagents. Plates are incubated for an additional 60 min at room temperature prior to being read on the Perkin Elmer fluorescent plate reader. Raw is converted to nM of cAMP produced based on a cAMP standard curve. Converted data is then analyzed using the Pfizer data analysis program. IC50 values are determined from the generated sigmoidal dose response curves. Kb values are calculated using a modified Cheng-Prusoff equation. N is the number of times the compound was assayed.
# human glucagon receptor [2] = target: T1, human glucagon receptor; experiment: Human Glucagon SPA Assay (binding of [125I]Glucagon-Cex); settings: membrane from chem-1 cells stably transfected with the human glucagon receptor, Ki by Cheng-Prusoff equation
# Method: The Glucagon SPA assay is used to determine the ability of test compounds to block the binding of glucagon-cex to the glucagon receptor. Test compounds are re-suspended and serially diluted in 100% DMSO. 1 μl of test compound at the desired concentrations is spotted into the appropriate wells of 96 well low binding white clear bottom plate (Corning). 1 μl of DMSO is spotted into total binding wells. 1 μl of a known glucagon antagonist at a concentration of 20 μM is added to non specific binding wells. […] All assay ingredients with the exception of test compounds are re-suspended in the following buffer; 50 mM Hepes pH 7.4; 5 mM MgCl2; 1 mM CaCl; 5% glycerol and 0.2% BSA. Following a 6-10 hr incubation at room temperature the amount of hot ligand bound to the cell membranes is determined by reading the plates on a Wallac Trilux radioactive emission detector. Data is analyzed using Pfizer's Data analysis program. IC50 values are then determined from the generated sigmoidal dose response curves. Ki values are calculated using Cheng-Prusoff equation. N is the number of times the compound was assayed.
# T1 sequence (P47871 26-477): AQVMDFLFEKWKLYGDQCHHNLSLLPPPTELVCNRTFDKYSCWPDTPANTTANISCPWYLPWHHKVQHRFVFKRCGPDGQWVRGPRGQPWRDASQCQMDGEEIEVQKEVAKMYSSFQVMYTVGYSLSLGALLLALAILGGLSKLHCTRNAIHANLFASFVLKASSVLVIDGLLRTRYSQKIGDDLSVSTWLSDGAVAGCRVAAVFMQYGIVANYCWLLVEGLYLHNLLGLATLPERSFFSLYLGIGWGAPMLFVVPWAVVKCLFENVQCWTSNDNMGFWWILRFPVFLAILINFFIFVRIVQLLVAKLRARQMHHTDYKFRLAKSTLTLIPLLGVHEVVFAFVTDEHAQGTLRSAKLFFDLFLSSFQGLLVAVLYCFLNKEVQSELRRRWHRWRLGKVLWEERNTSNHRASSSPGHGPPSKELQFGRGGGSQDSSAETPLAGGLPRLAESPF
Kb (human glucagon receptor [1]) [nM],Ki (human glucagon receptor [2]) [µM],Compound
52.4,0.192,CCCC(Nc1ccc(-n2cc(-c3ccccn3)cn2)nc1)c1ccc(C(=O)NCCC(=O)O)cc1 (racemic) [Example 164]
730,0.315,"CCCC(Oc1ccc(-n2cc(C(F)(F)F)cn2)cc1C)c1ccc(C(=O)NCCC(=O)O)cc1 (stereo not shown) [Example 159, 3-(4-(1-(2-methyl-4-(4-(trifluoromethyl)-1H-pyrazol-1-yl)phenoxy)butyl)benzamido)propanoic acid]"
187,0.0919,"O=C(O)CCNC(=O)c1ccc(C(Nc2ccc(-n3cc(C(F)(F)F)cn3)nc2)C2CCC2)cc1 (racemic) [Example 106, (+/−)-3-(4-(cyclobutyl(6-(4-(trifluoromethyl)-1H-pyrazol-1-yl)pyridin-3-ylamino)methyl)benzamido)propanoic acid]"
21,0.00905,"O=C(O)CCNC(=O)c1ccc([C@@H](Nc2ccc(-n3cc(C(F)(F)F)cn3)nc2)C2CCCCC2)cc1 (single isomer, unassigned) [Example 146, 3-(4-(cyclohexyl(6-(4-(trifluoromethyl)-1H-pyrazol-1-yl)pyridine-3-ylamino)methyl)benzamido)propanoic acid]"
179,0.0574,"CC(C)C[C@H](Nc1ccc(C(=O)NCCC(=O)O)cn1)c1ccc(-n2cc(C(F)(F)F)cn2)nc1 (single isomer, unassigned) [Example 143, 3-(6-(3-methyl-1-(6-(4-(trifluoromethyl)-1H-pyrazol-1-yl)pyridin-3-yl)butylamino)nicotinamido)propanoic acid]"
106,0.0422,"CC1(C)CC(C(Nc2ccc(-n3cnc(C(F)(F)F)c3)nc2)c2ccc(C(=O)NCCC(=O)O)cc2)C1 (stereo not shown) [Example 188, (+\−)-3-(4-((3,3-dimethylcyclobutyl)(6-(4-(trifluoromethyl)-1H-imidazol-1-yl)pyridin-3-ylamino)methyl)benzamido)propanoic acid]"
2340,0.432,"O=C(O)CCNC(=O)c1ccc(C(Nc2ccc(-n3cc(C(F)(F)F)cn3)nc2)C2CCOCC2)cc1 (racemic) [Example 177, (±)-3-(4-((tetrahydro-2H-pyran-4-yl)((6-(4-(trifluoromethyl)-1H-pyrazol-1-yl)pyridin-3-yl)amino)methyl)benzamido)propanoic acid]"
11.7,0.0293,"Cc1nn(-c2ccc(N[C@H](c3ccc(C(=O)NCCC(=O)O)cc3)C3CCCC3)cn2)cc1Cl (single isomer, unassigned; isomer 1) [Example 191, 3-(4-((6-(4-chloro-3-methyl-1H-pyrazol-1-yl)pyridin-3-ylamino)(cyclopentyl)methyl)benzamido)propanoic acid, Isomer 1]"
222,0.0302,"CCC[C@@H](Nc1ccc(-n2cc(C(C)(C)C)cn2)nc1)c1ccc(C(=O)NCCC(=O)O)cc1 (single isomer, unassigned) [Example 136, 3-(4-(1-(6-(4-tert-butyl-1H-pyrazol-1-yl)pyridin-3-ylamino)butyl)benzamido)propanoic acid]"
134,0.0221,"CC(C)(C)[C@H](Nc1ccc(-n2cc(C(F)(F)F)cn2)nc1)c1ccc(C(=O)NCCC(=O)O)cc1 (single isomer, unassigned; isomer 1) [Example 179, 3-(4-(2,2-dimethyl-1-((6-(4-(trifluoromethyl)-1H-pyrazol-1-yl)pyridin-3-yl)amino)propyl)benzamido)propanoic acid, Isomer 1]"
424,0.156,"CC(C)(C)[C@H](Nc1ccc(-n2cnc(C(F)(F)F)c2)nc1)c1ccc(C(=O)NCCC(=O)O)cc1 (single isomer, unassigned; isomer 1) [Example 182, 3-(4-(2,2-dimethyl-1-((6-(4-(trifluoromethyl)-1H-imidazol-1-yl)pyridin-3-yl)amino)propyl)benzamido)propanoic acid, Isomer 1]"
629,0.235,"O=C(O)CCNC(=O)c1ccc(C(Nc2ccc(-n3cnc(C(F)(F)F)c3)nc2)C2CC(F)(F)C2)cc1 (racemic) [Example 154, (+/−)-3-(4-((3,3-difluorocyclobutyl)(6-(4-(trifluoromethyl)-1H-imidazol-1-yl)pyridin-3-ylamino)methyl)benzamido)propanoic acid]"
154,0.0628,"CCCC(Oc1ccc(-n2cc3cc(Cl)ccc3n2)cc1)c1ccc(C(=O)NCCC(=O)O)cc1 (stereo not shown) [Example 140, (+\−)-3-(4-(1-(4-(5-chloro-2H-indazol-2-yl)phenoxy)butyl)benzamido)propanoic acid]"
106,0.0884,"CC(C)c1cn(-c2ccc(NC(c3ccc(C(=O)NCCC(=O)O)cc3)C3CCCC3)cn2)cn1 (stereo not shown) [Example 123, 3-(4-(cyclopentyl(6-(4-isopropyl-1H-imidazol-1-yl)pyridin-3-ylamino)methyl)benzamido)propanoic acid]"
28,0.035,"CC1(C)CC([C@@H](Nc2ccc(-n3cnc(C(F)(F)F)c3)nc2)c2ccc(C(=O)NCCC(=O)O)cc2)C1 (single isomer, unassigned) [Example 135, 3-(4-((3,3-dimethylcyclobutyl)(6-(4-(trifluoromethyl)-1H-imidazol-1-yl)pyridin-3-ylamino)methyl)benzamido)propanoic acid]"
1060,1.1,"O=C(O)CCNC(=O)c1ccc(C(Nc2ccc(-n3cnc(C(F)(F)F)c3)nc2)C2CCCC2)cc1 (single isomer, unassigned) [Example 98, 3-(4-(cyclopentyl(6-(4-(trifluoromethyl)-1H-imidazol-1-yl)pyridin-3-ylamino)methyl)benzamido)propanoic acid]"
43,0.0457,"CC(C)(C)c1cn(-c2ccc(NC(c3ccc(C(=O)NCCC(=O)O)cc3)C3CCCC3)cn2)cn1 (racemic) [Example 122, (+/−)-3-(4-((6-(4-tert-butyl-1H-imidazol-1-yl)pyridin-3-ylamino)(cyclopentyl)methyl)benzamido)propanoic acid]"
225,0.0323,"CCCC(Oc1cc(C)c(-n2cc(C(F)(F)F)cn2)c(OC)c1)c1ccc(C(=O)NCCC(=O)O)cc1 (racemic) [Example 153, (+/−)-3-(4-(1-(3-methoxy-5-methyl-4-(4-(trifluoromethyl)-1H-pyrazol-1-yl)phenoxy)butyl)benzamido)propanoic acid]"
10.5,0.0287,"CC1(C)CC([C@H](Nc2ccc(-n3cc(C4CC4)cn3)nc2)c2ccc(C(=O)NCCC(=O)O)cc2)C1 (single isomer, unassigned; isomer 2) [Example 175, N-{-4-[{[6-(4-cyclopropyl-1H-pyrazol-1-yl)pyridin-3-yl]amino}(3,3-dimethylcyclobutyl)methyl]benzoyl}-beta-alanine, Isomer 2]"
79.1,0.101,"CCCC(Nc1ccc(-n2cc(C3CC3)cn2)nc1)c1ccc(C(=O)NCCC(=O)O)cc1 (racemic) [Example 176, (+/−)-N-[4-(1-{[6-(4-cyclopropyl-1H-pyrazol-1-yl)pyridin-3-yl]amino}butyl)benzoyl]-beta-alanine]"
174,0.0626,"CCCC(Oc1cc(C)c(-n2cc(C3CC3)cn2)c(C)c1)c1ccc(C(=O)NCCC(=O)O)cc1 (stereo not shown) [Example 144, (+\−)-3-(4-(1-(4-(4-cyclopropyl-1H-pyrazol-1-yl)-3,5-dimethylphenoxy)butyl)benzamido)propanoic acid]"
13,0.0293,"CCCC(Nc1ccc(-n2cnc(-c3ccccc3)c2)nc1)c1ccc(C(=O)NCCC(=O)O)cc1 (single isomer, unassigned) [Example 129, 3-(4-(1-(6-(4-phenyl-1H-imidazol-1-yl)pyridin-3-ylamino)butyl)benzamido)propanoic acid]"

Compound,Kb (human glucagon receptor [1]) [nM],Ki (human glucagon receptor [2]) [µM]
"CCCC(Oc1cc(C)c(-n2cc(Cl)cn2)c(C)c1)c1ccc(C(=O)NCCC(=O)O)cc1 (stereo not shown) [Example 130, (+\−)-3-(4-(1-(4-(4-chloro-1H-pyrazol-1-yl)-3,5-dimethylphenoxy)butyl)benzamido)propanoic acid]",195,0.116

# From patent US8507533B2, “Glucagon receptor modulators” (Pfizer Inc., priority 2011, dated 2013)
